Like-named read-outs stand apart in the source and are kept apart here. Marks after values point to notes of the source that are not given here.
Experiments:
PfTrxR = biological target: T1, PfTrxR (Plasmodium falciparum, UniProt Q25861); assay: P. falciparum TrxR enzyme inhibition; assay type: biochemical
T1 construct: 6-His (N); made in house; host or cells: E. coli BL21 (DE3)
T1 sequence (Q25861 1-541): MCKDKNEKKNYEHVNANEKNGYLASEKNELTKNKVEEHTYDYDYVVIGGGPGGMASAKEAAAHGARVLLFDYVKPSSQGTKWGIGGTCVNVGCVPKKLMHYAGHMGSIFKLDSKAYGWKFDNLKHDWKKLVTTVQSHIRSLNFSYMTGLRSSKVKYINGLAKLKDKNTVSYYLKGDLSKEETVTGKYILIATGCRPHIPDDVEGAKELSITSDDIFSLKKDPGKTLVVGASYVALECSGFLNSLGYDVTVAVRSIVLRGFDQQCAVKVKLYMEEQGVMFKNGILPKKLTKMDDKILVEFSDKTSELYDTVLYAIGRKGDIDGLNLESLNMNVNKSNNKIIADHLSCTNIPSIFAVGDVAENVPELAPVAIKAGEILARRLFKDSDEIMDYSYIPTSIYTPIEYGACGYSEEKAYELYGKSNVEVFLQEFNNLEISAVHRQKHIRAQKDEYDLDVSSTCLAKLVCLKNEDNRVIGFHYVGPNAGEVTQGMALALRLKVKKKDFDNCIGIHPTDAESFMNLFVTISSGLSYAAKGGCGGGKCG
Method: Recombinant TGR, human TrxR1, B. malayi (Bm)TrxR and human GR proteins were expressed and purified as described[20],[69],[79]. The codon optimized sequence for P. falciparum (PfTrxR, https://www.ncbi.nlm.nih.gov/protein/CAA60574.1/) with an N-terminal 6-His tag was synthesized and inserted into pET15b (GenScript) and expressed in BL21 (DE3) cells and purified as described for human GR[20]. TGR and TrxR enzyme inhibition assays were performed in triplicate at 25 °C as described[20] in 0.1 M potassium phosphate (pH 7.4), 10 mM EDTA, 100 µM NADPH and 0.01% Tween-20. TGR, human TrxR1 and BmTrxR (all at 4 nM) and PfTrxR (50 nM) were preincubated with the compounds for 15 min. The reaction was started with addition of an equal volume of DTNB (6 mM) and NADPH (100 µM) and the increase in A412 during the first 3 min was recorded. […] The reaction was preincubated for 15 min. Activity was initiated with the addition of 1 mM GSSG and 100 μM NADPH and initial rates of NADPH oxidation were monitored at 340 nm. The reactions were done in triplicate. The IC50 was calculated in GraphPad Prism.

[1] = system: S. mansoni juvenile worms (21 days); assay: Schistosomicidal activity ex vivo, juvenile worms (21 days); assay type: cell-based; settings: juvenile worms, 48 h exposure
Method: Three-week old, female Swiss-Webster mice obtained from the Charles River were housed in the Comparative Research Center of Rush University Medical Center. Mice were infected by percutaneous tail exposure to about 200 S. mansoni or 50 S. japonicum cercaria for adult worms and about 1000 cercaria for juvenile S. mansoni worms through natural transdermal penetration of the cercariae for 1 h[81].
DMSO formulated compounds were diluted with phenol red free M199 medium or RPMI medium for NTS or juvenile and adult worms, respectively, at <1% DMSO final concentrations. NTS, juvenile and adult worms from overnight cultures were tested against compounds in triplicate. Controls were treated with DMSO alone or 5 µM AF as a positive control in appropriate medium. […] Schistosome viabilities in the presence of the compounds were assessed using this formula: % Viability = Averages of Test / Averages of DMSO Control x 100.

## CC1C(NCc2cn(C3OCC(O)C(O)C3O)c3ccccc23)CC2CC1C2(C)C (stereo not drawn) [Compound 9]
PfTrxR
  inhibition at 10 µM: 6.78%
  inhibition at 25 µM: 8.79%
  inhibition at 50 µM: 16.2%
PfTrxR; read-out: PfTrxR % inhibition at 50 µM
  inhibition at 50 µM: 16%

## C[C@@H]1N=C(c2ccccc2Cl)c2cc([N+](=O)[O-])ccc2NC1=O [MZM, meclonazepam, reference compound]
[1]
  LD50 ex vivo S. mansoni 21 days: >50^a µM

## O=C(C1CCCCC1)N1CC(=O)N2CCc3ccccc3C2C1 (stereo not drawn) [PZQ, praziquantel]
[1]
  LD50 ex vivo S. mansoni 21 days: >50^a µM
